The results in this text go back to patent US7629376B2, “3-substituted-5- and 6-aminoalkyl indole-2-carboxylic acid amides and related analogs as inhibitors of casein kinase I” (Aventis Pharmaceuticals Inc., priority 2004, dated 2009).

Usually Ki stands for the dissociation constant of the complex between target and ligand, obtained from inhibition or displacement. Low values mean higher affinity, high ones lower affinity. Usually melting point stands for the temperature, or range, at which the solid turns liquid.

One series has as its target T1, casein kinase 1ε (Homo sapiens, UniProt P49674).
T1 construct: made in house
The series is described as follows: Casein Kinase Epsilon 33P-ATP Filter Plate Assay for Screening CK1ε Inhibitors. The class given is biochemical.

T1 sequence (P49674 whole entry): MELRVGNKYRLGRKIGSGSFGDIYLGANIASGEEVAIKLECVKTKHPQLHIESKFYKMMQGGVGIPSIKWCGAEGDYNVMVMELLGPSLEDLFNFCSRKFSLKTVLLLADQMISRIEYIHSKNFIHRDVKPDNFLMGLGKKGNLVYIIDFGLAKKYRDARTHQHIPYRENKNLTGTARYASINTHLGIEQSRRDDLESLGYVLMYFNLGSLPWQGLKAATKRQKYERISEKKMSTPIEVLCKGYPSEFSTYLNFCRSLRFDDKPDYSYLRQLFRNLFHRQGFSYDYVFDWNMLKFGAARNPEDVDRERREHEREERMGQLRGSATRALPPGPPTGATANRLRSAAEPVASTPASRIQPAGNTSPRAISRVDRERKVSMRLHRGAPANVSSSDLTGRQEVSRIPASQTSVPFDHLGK
Experimental for casein kinase 1ε: Casein Kinase Epsilon ^33P-ATP Filter Plate Assay for Screening CK1ε Inhibitors
Purpose: This assay measures the ability of compounds to inhibit the phosphorylation of the substrate casein by the enzyme casein kinase 1ε using an in vitro ^33P-ATP filtration assay.
The above are stored as 100 μL aliquots at minus 80° C. • Compounds: • Supply compounds for testing as frozen 10 mM compound stock dissolved in 100% DMSO. Assay Conditions: • Final total assay volume per well is equal to 50 μL that one prepares as follows: • 5 μL of diluted compound stock (10, 1, 0.1, 0.01 or 0.001 μM), • 5 μL of dephosphorylated casein final concentration 0.2 μg/μL, • 20 μL of CK1ε final concentration 3 ng/μL, and • 20 μL of γ-^33P-ATP final concentration 0.02 μCi/μL mixed with cold ATP (10 μM final). Methodology: • 1. Prepare 500 mL of fresh assay buffer: 50 mM Tris pH 7.5, 10 nm MgCl2, 2 mM DTT and 1 mM EGTA • 2. Obtain compounds to be evaluated as 10 μL of 10 mM stock dissolved in 100% DMSO. Use a Biomek 2000 liquid handling robot, make serial dilutions to yield 10, 1, 0.1, 0.01 and 0.001 μM final compound dilutions added as 5 μL additions to Falcon U bottom plates. […] A routine screening assay will consist of 32 compounds, which equals 4 assay plates. • 3.
• 4. Add 5 μL of compound as indicated, then add 5 μL of dephosphorylated casein (dissolved in distilled H20) (0.2 μg/μL) and 20 μL CK1ε (3 ng/μL) to the appropriate wells. • 5. Finally add 20 μL γ-^33P-ATP (0.02 μCi/μL)/10 μM cold ATP (equals approximately 2×10^6 CPM per well). • 6. Vortes the Falcon U-Bottom assay plate containing the above 50 μL reaction volume and then incubate at room temperature for 2 hours. • 7. At the end of 2 hours, stop the reaction by the addition of 65 μL of ice cold 2 mM cold ATP (made up in assay buffer) to the assay plates using a Beckman Multimek. • 8. At the same time add 25 μL 100% ice cold TCA made up in distilled H20 to a matching number of Millipore MAPH filter plates. • 9. Using a handheld 8-channel pipettor, transfer 100 μL of the reaction mixture from the Falcon U-Bottom Plate to the Millipore MAPH filter plates presoaked with TCA. • 10. Mix the Millipore MAPH filter plates gently and allow to sit at room temperature for at least 30 minutes to precipitate the proteins. • 11. After 30 minutes, place the filter plates on a Millipore vacuum manifold and filter at no more than 8 mm Hg as the MAPH filters tend to “air lock” at higher vacuum settings. • 12. […] Allow the plates to dry overnight at room temperature. The next day add 40 μL Packard Microscint-20 Scintillation Fluid per well using a Titertek Multidrop dispenser; seal the plates and count for 2 minutes/well in a Packard Topcount NXT Scintillation Counter (to provide CPM values/well). Calculation: • 1. Import Counts Per Minute (CPM) data into a proprietary data calculation and archiving database (Activity Base by IDBS version 5.0). • 2. Column 1 for each plate reflects total phosphorylation activity of the enzyme in the absence of any inhibiting compound and thus represents 100%. Column 12 reflects any nonspecific phosphorylation/retained radioactivity activity in the absence of inhibiting compound and enzyme. Typically one observes approximately 1% of Total CPMs that are “nonspecific”. • 3.

On to `CC(CO)NCc1ccc2[nH]c(C(N)=O)c(Sc3ccccc3)c2c1` (centres unmarked) [Ix, 5-[(2-Hydroxy-1-methyl-ethylamino)methyl]-3-phenylsulfanyl-1H-indole-2-carboxylic acid amide], for which the melting point lay in the range of 192.7 to 193.6 °C. This compound showed a Ki on casein kinase 1ε of 130 nM.
